From ChEMBL document CHEMBL1159373, “New acetylenic acids from a sponge of the genus Stelletta” (2003) come the findings set out here.

In brackets after ≈: the same amount, converted by molar mass.

The assay relates to K562. The assay can be described thus: Cytotoxicity against human K562 cells. Particulars: read-out: LC50 (the source's name). The format is functional.

Consider `C=CCCCCC(C)CCCCCC#CCCCC(=O)O` (configuration not stated), for which the CC50 was 43.5 µg/mL (≈ 149 µM).

Consider `C=CCCCCC(C)CCCCCC#CCCC(OC)C(=O)OC(=O)C(CCC#CCCCCCC(C)CCCCC=C)OC` (configuration not stated), for which the CC50 was determined as 62.5 µg/mL (≈ 99.7 µM).
